According to US10052331B2, “3-(3H-imidazo[4,5-C]pyridin-2-yl)-1H-pyrazolo[3,4-C]pyridine and therapeutic uses thereof” (Samumed, LLC, priority 2014, dated 2018):

Assays:
[1] = test system: Wnt activity (Wnt-responsive Sp5 promoter-luciferase reporter in SW480 cells); assay: Wnt activity screening assay: Sp5-Luc reporter gene in SW480 colon carcinoma cells; type: cell-based; conditions: Homo sapiens
Text: The screening assay for Wnt activity is described as follows. Reporter cell lines can be generated by stably transducing cancer cell lines (e.g., colon cancer) or primary cells (e.g., IEC-6 intestinal cells) with a lentiviral construct that includes a Wnt-responsive promoter driving expression of the firefly luciferase gene.
SW480 colon carcinoma cells were transduced with a lentiviral vector expressing luciferase with a human Sp5 promoter consisting of a sequence of eight TCF/LEF binding sites. SW480 cells stably expressing the Sp5-Luc reporter gene and a hygromycin resistance gene were selected by treatment with 150 μg/ml of hygromycin for 7 days. These stably transduced SW480 cells were expanded in cell culture and used for all further screening activities. For Sp5-Luc reporter gene assays, the cells were plated at 10,000 cells/well in 96-well plates with growth medium containing 10% fetal calf serum and incubated overnight at 37° C. and 5% CO2. Each compound was dissolved in DMSO as a 10 mM stock in standard j-vials and used to prepare compound source plates in dose-response format with 3-fold serial dilutions and a 10 mM top concentration. Compound transfer from serially diluted source plates to assay plates containing the cells was accomplished using a pintool (Multimek 96, Beckman equipped with V&P Scientific FP1S50H pins) based liquid handling protocol. This protocol used a slotted pin to transfer 50 nl of compound from a source plate well to an assay plate well containing 50 μl of cells in growth medium. […] Control wells received 50 nl of DMSO treatment for normalization and calculating IC50 values. The treated cells were incubated at 37° C. and 5% CO2 for an additional forty-two hours. Following incubation, the growth medium was removed and 50 μl of BrightGlo luminescence reagent (Promega) was added to each well of the 96-well assay plates. The plates were placed on an orbital shaker for 5 min and then luminescence was quantified on the Victor3 (Perkin Elmer) plate reader. Readings were normalized to DMSO only treated cells, and normalized activities were utilized for IC50 calculations using the dose-response log (inhibitor) vs. response-variable slope (four parameters) nonlinear regression feature available in GraphPad Prism 5.0 or 6.0.

[2] = test system: primary human fibroblasts derived from IPF patients (LL29 cells); assay: Inhibition of fibrotic process: αSMA staining in TGF-β1-treated primary human fibroblasts from IPF patients (LL29 cells); type: cell-based; conditions: Fibroblast, 96 h, LL29 cells treated with TGF-β1 (20 ng/mL), 4 days, 11-point dose-response from 10 μM to 1.87 nM, read-out: Inhibition of fibrosis EC50
Text: The above synthesized compounds were screened using primary human fibroblasts (derived from IPF patients) treated with TGF-β1 to determine their ability to inhibit the fibrotic process.
Primary human fibroblasts derived from IPF patients (LL29 cells) [^1Xiaoqiu Liu, et. al., “Fibrotic Lung Fibroblasts Show Blunted Inhibition by cAMP Due to Deficient cAMP Response Element-Binding Protein Phosphorylation”, Journal of Pharmacology and Experimental Therapeutics (2005), 315(2), 678-687; ^2Watts, K. L., et. al., “RhoA signaling modulates cyclin D1 expression in human lung fibroblasts; implications for idiopathic pulmonary fibrosis”, Respiratory Research (2006), 7(1), 88] were obtained from American Type Culture Collection (ATCC) and expanded in F12 medium supplemented with 15% Fetal Bovine Serum and Penicillin/Streptomycin.
Each compound was dissolved in DMSO as a 10 mM stock and used to prepare compound source plates. Serial dilution (1:2, 11-point dose-response curves from 10 μM to 1.87 nM) and compound transfer was performed using the ECHO 550 (Labcyte, Sunnyvale, Calif.) into 384-well clear bottom assay plates (Greiner Bio-One) with appropriate DMSO backfill for a final DMSO concentration of 0.1%. LL29 cells were plated at 1,500 cells/well in 80 μl/well F12 medium supplemented with 1% Fetal Bovine Serum. One hour after addition of the cells, TGF-β1 (Peprotech; 20 ng/mL) was added to the plates to induce fibrosis (ref. 1 and 2 above). Wells treated with TGF-β1 and containing DMSO were used as controls. Cells were incubated at 37° C. and 5% CO2 for 4 days. Following incubation for 4 days, SYTOX green nucleic acid stain (Life Technologies [Thermo Fisher Scientific]) was added to the wells at a final concentration of 1 uM and incubated at room temperature for 30 min. Cells were then fixed using 4% formaldehyde (Electron Microscopy Sciences), washed 3 times with PBS followed by blocking and permeabilization using 3% Bovine Serum Albumin (BSA; Sigma) and 0.3% Triton X-100 (Sigma) in PBS. Cells were then stained with antibody specific to α-smooth muscle actin (αSMA; Abcam) (ref. 1 and 2 above) in 3% Bovine Serum Albumin (BSA; Sigma) and 0.3% Triton X-100 (Sigma) in PBS, and incubated overnight at 4° C. Cells were then washed 3 times with PBS, followed by incubation with Alexa Flor-647 conjugated secondary antibody (Life Technologies [Thermo Fisher Scientific]) and DAPI at room temperature for 1 hour. Cells were then washed 3 times with PBS and plates were sealed for imaging. αSMA staining was imaged by excitation at 630 nm and emission at 665 nm and quantified using the Compartmental Analysis program on the CellInsight CX5 (Thermo Scientific). Dead or apoptotic cells were excluded from analysis based on positive SYTOX green staining. % of total cells positive for αSMA were counted in each well and normalized to the average of 11 wells treated with TGF-β1 on the same plate using Dotmatics' Studies Software. The normalized averages (fold change over untreated) of 3 replicate wells for each compound concentration were used to create dose-responses curves and EC50 values were calculated using non-linear regression curve fit in the Dotmatics' Studies Software. The EC50 values are reported.

IC50 [1] [nM] | Structure (SMILES) | EC50 [2] [nM]
> 10000 | Cc1ccncc1-c1cc2c(-c3nc4c(-c5ccncc5)cncc4[nH]3)n[nH]c2cn1 [Compound 109, 5-(4-Methylpyridin-3-yl)-3-(7-(pyridin-4-yl)-3H-imidazo[4,5-c]pyridin-2-yl)-1H-pyrazolo[3,4-c]pyridine] | ≥ 9990
> 10000 | CCCC(=O)Nc1cncc(-c2cc3c(-c4nc5c(-c6ccncc6)cncc5[nH]4)n[nH]c3cn2)c1 [Compound 121, N-(5-(3-(7-(Pyridin-4-yl)-3H-imidazo[4,5-c]pyridin-2-yl)-1H-pyrazolo[3,4-c]pyridin-5-yl)pyridin-3-yl)butyramide] | ≥ 9990
562 | CCNCc1cncc(-c2cc3c(-c4nc5c(-c6ccccn6)cncc5[nH]4)n[nH]c3cn2)c1 [Compound 136, N-((5-(3-(7-(Pyridin-2-yl)-3H-imidazo[4,5-c]pyridin-2-yl)-1H-pyrazolo[3,4-c]pyridin-5-yl)pyridin-3-yl)methyl)ethanamine] | 598
> 10000 | CCCCC(=O)Nc1cncc(-c2cc3c(-c4nc5c(-c6ccccn6)cncc5[nH]4)n[nH]c3cn2)c1 [Compound 148, N-(5-(3-(7-(Pyridin-2-yl)-3H-imidazo[4,5-c]pyridin-2-yl)-1H-pyrazolo[3,4-c]pyridin-5-yl)pyridin-3-yl)pentanamide] | ≥ 9990
945 | c1ccc(-c2cncc3[nH]c(-c4n[nH]c5cnc(-c6cncc(CNCC7CCCC7)c6)cc45)nc23)nc1 [Compound 154, 1-Cyclopentyl-N-((5-(3-(7-(pyridin-2-yl)-3H-imidazo[4,5-c]pyridin-2-yl)-1H-pyrazolo[3,4-c]pyridin-5-yl)pyridin-3-yl)methyl)methanamine] | 649
122 | CN(C)Cc1cncc(-c2cc3c(-c4nc5c(N6CCCCC6)cncc5[nH]4)n[nH]c3cn2)c1 [Compound 169, N,N-Dimethyl-1-(5-(3-(7-(piperidin-1-yl)-3H-imidazo[4,5-c]pyridin-2-yl)-1H-pyrazolo[3,4-c]pyridin-5-yl)pyridin-3-yl)methanamine] | 74
40 | Cc1ccncc1-c1cc2c(-c3nc4c(-c5ccsc5)cncc4[nH]3)n[nH]c2cn1 [Compound 239, 5-(4-Methylpyridin-3-yl)-3-(7-(thiophen-3-yl)-3H-imidazo[4,5-c]pyridin-2-yl)-1H-pyrazolo[3,4-c]pyridine] | ≤ 9
653 | c1ccc(CNCc2cncc(-c3cc4c(-c5nc6c(-c7ccsc7)cncc6[nH]5)n[nH]c4cn3)c2)cc1 [Compound 257, N-Benzyl-1-(5-(3-(7-(thiophen-3-yl)-3H-imidazo[4,5-c]pyridin-2-yl)-1H-pyrazolo[3,4-c]pyridin-5-yl)pyridin-3-yl)methanamine] | 2630
> 10000 | CCNCc1cncc(-c2cc3c(-c4nc5c(-c6ccoc6)cncc5[nH]4)n[nH]c3cn2)c1 [Compound 266, N-((5-(3-(7-(Furan-3-yl)-3H-imidazo[4,5-c]pyridin-2-yl)-1H-pyrazolo[3,4-c]pyridin-5-yl)pyridin-3-yl)methyl)ethanamine] | ≥ 9990
37.6 | CC(C)Nc1cncc(-c2cc3c(-c4nc5c(-c6ccoc6)cncc5[nH]4)n[nH]c3cn2)c1 [Compound 272, 5-(3-(7-(Furan-3-yl)-3H-imidazo[4,5-c]pyridin-2-yl)-1H-pyrazolo[3,4-c]pyridin-5-yl)-N-isopropylpyridin-3-amine] | ≤ 9

Further lines, the molecule ahead of its results:

Structure (SMILES) | IC50 [1] [nM] | EC50 [2] [nM]
O=C(Nc1cncc(-c2cc3c(-c4nc5c(-c6ccccn6)cncc5[nH]4)n[nH]c3cn2)c1)c1ccccc1 [Compound 141, N-(5-(3-(7-(Pyridin-2-yl)-3H-imidazo[4,5-c]pyridin-2-yl)-1H-pyrazolo[3,4-c]pyridin-5-yl)pyridin-3-yl)benzamide] | > 10000 | ≥ 9990
CCC(=O)Nc1cncc(-c2cc3c(-c4nc5c(N6CCCCC6)cncc5[nH]4)n[nH]c3cn2)c1 [Compound 157, N-(5-(3-(7-(Piperidin-1-yl)-3H-imidazo[4,5-c]pyridin-2-yl)-1H-pyrazolo[3,4-c]pyridin-5-yl)pyridin-3-yl)propionamide] | 866 | 1560
CN(C)c1cncc(-c2cc3c(-c4nc5c(N6CCCCC6)cncc5[nH]4)n[nH]c3cn2)c1 [Compound 163, N,N-Dimethyl-5-(3-(7-(piperidin-1-yl)-3H-imidazo[4,5-c]pyridin-2-yl)-1H-pyrazolo[3,4-c]pyridin-5-yl)pyridin-3-amine] | 310 | 38
O=C(Nc1cncc(-c2cc3c(-c4nc5c(N6CCCCC6)cncc5[nH]4)n[nH]c3cn2)c1)C1CC1 [Compound 175, N-(5-(3-(7-(Piperidin-1-yl)-3H-imidazo[4,5-c]pyridin-2-yl)-1H-pyrazolo[3,4-c]pyridin-5-yl)pyridin-3-yl)cyclopropanecarboxamide] | 820 | ≤ 9
CN1CCN(c2cncc3[nH]c(-c4n[nH]c5cnc(-c6cncc(N)c6)cc45)nc23)CC1 [Compound 211, 5-(3-(7-(4-Methylpiperazin-1-yl)-3H-imidazo[4,5-c]pyridin-2-yl)-1H-pyrazolo[3,4-c]pyridin-5-yl)pyridin-3-amine] | > 10000 | ≤ 9
CC(C)C(=O)Nc1cncc(-c2cc3c(-c4nc5c(N6CCN(C)CC6)cncc5[nH]4)n[nH]c3cn2)c1 [Compound 217, N-(5-(3-(7-(4-Methylpiperazin-1-yl)-3H-imidazo[4,5-c]pyridin-2-yl)-1H-pyrazolo[3,4-c]pyridin-5-yl)pyridin-3-yl)isobutyramide] | 557 | ≥ 9990
CN1CCN(c2cncc3[nH]c(-c4n[nH]c5cnc(-c6cncc(CN7CCCCC7)c6)cc45)nc23)CC1 [Compound 223, 3-(7-(4-Methylpiperazin-1-yl)-3H-imidazo[4,5-c]pyridin-2-yl)-5-(5-(piperidin-1-ylmethyl)pyridin-3-yl)-1H-pyrazolo[3,4-c]pyridine] | 1380 | ≥ 9990
CN1CCN(c2cncc3[nH]c(-c4n[nH]c5cnc(-c6cncc(NC(=O)C7CCCC7)c6)cc45)nc23)CC1 [Compound 229, N-(5-(3-(7-(4-Methylpiperazin-1-yl)-3H-imidazo[4,5-c]pyridin-2-yl)-1H-pyrazolo[3,4-c]pyridin-5-yl)pyridin-3-yl)cyclopentanecarboxamide] | 440 | ≥ 9990
CN1CCN(c2cncc3[nH]c(-c4n[nH]c5cnc(-c6cncnc6)cc45)nc23)CC1 [Compound 234, 3-(7-(4-methylpiperazin-1-yl)-3H-imidazo[4,5-c]pyridin-2-yl)-5-(pyrimidin-5-yl)-1H-pyrazolo[3,4-c]pyridine] | 379 | 966
